Measured values reported in paper PMC9826768, “New polychlorinated bibenzyls from Rhododendron minutiflorum” (Natural Products and Bioprospecting, 2023).

Key:
α-glucosidase = α-glucosidase inhibitory activity (PNPG method); assay type: biochemical; details: mean ± SE; acarbose as positive control
Experimental: In order to evaluate the insecticidal activities of all the isolated compounds, their toxicities on D. citri Kuwayama were tested.
According to the previously reported method, all the isolated compounds were screened for α-glucosidase inhibitory activity.

[1] = test system: Diaphorina citri Kuwayama; test: Insecticidal activity (toxicity) against the Asian citrus psyllid; assay type: in vivo; details: for LD50: against D. citri, during 6 days after treatment (calculated using observations on day 6), Probit analysis; for corrected mortality rate of citrus psyllid: 4th day after the test started, compound concentration higher than 50 mg/L
Experimental: To avoid accidental injury, all the D. citri were carefully collected and cultured. The insecticidal activities of eight compounds were evaluated using methods described in the literature with slightly modified. […] Finally, mortality was calculated every 24 h starting on the second day of the trial.

Row | Structure (SMILES) | IC50 (α-glucosidase) | LD50 [1] | corrected mortality rate of citrus psyllid [1]
1 | Oc1cc(CCc2cc(Cl)c(O)c(Cl)c2)c(Cl)cc1Cl [Compound 3, 4,6,3′,5′-tetrachloro-3,4′-dihydroxybibenzyl] | 60.4 ± 1.54 µM | 48.50 mg/L | 
2 | CC(C)=CCc1ccc(CCc2ccc(O)cc2)cc1O [Compound 8, 3,4″-dihydroxyl-4-(3′-methyl-2′-butenyl)-bibenzyl] | 65.4 ± 2.04 µM |  | 
3 | COc1cc(CCc2cc(Cl)c(O)c(Cl)c2)ccc1Cl [Compound 5, 4,3′,5′-trichloro-4′-hydroxyl-3-methoxybibenzyl] | 62.7 ± 6.87 µM | 17.02 mg/L | higher than 50%
4 | Oc1c(Cl)cc(CCc2ccc(Cl)c(O)c2Cl)cc1Cl [Compound 2, 2,4,3′,5′-tetrachloro-3,4′-dihydroxybibenzyl] |  | 27.15 mg/L | higher than 50%
5 | Oc1c(Cl)cc(CCc2c(Cl)cc(Cl)c(O)c2Cl)cc1Cl [Compound 1, 2,4,6,3′,5′-pentachloro-3,4′-dihydroxybibenzyl] | 82.8 ± 4.99 µM |  | 
6 | CC(C)=CCc1c(O)cc(O)cc1CCc1ccccc1 [Compound 7, 3,5-dihydroxyl-2-(3′-methyl-2′-butenyl)-bibenzyl] | 56.7 ± 1.42 µM | 48.64 mg/L | 
7 | COc1cc(O)c(CCC(C)(C)O)c(CCc2ccccc2)c1 [Compound 6, 3-hydroxyl-5-methoxy-2-(3′-hydroxyl-3′-methylbutyl)-bibenzyl] | 76 ± 12 µM | 16.20 mg/L | higher than 50%
8 | O=C1CCC[C@@H]2[C@H]3CCCN4CCC[C@@H](CN12)[C@@H]34 [Matrine, matrine, reference compound] |  | 11.86 mg/L | 
9 | Oc1cc(CCc2cc(Cl)c(O)c(Cl)c2)ccc1Cl [Compound 4, 4,3′,5′-trichloro-3,4′-dihydroxybibenzyl] | 17.9 ± 0.74 µM |  | 
